Patent US5283256A, “Cholesterol-lowering agents” (Merck & Co., Inc., priority 1992, dated 1994)

What was measured:
[1] = molecular target: T1, squalene synthase (human HepG2 enzyme) (Homo sapiens, UniProt P37268); test: Squalene synthase assay, human HepG2 cell enzyme; assay type: biochemical; settings: 3H-farnesyl pyrophosphate, 30° C., 20 min
T1 construct: The resulting pellet from the 100,000×g centrifugation, containing the squalene synthase; endogenous in cells; host or cells: HepG2 (ATCC HB 8065), microsomal pellet of sonicated cells
T1 sequence (P37268 1-417): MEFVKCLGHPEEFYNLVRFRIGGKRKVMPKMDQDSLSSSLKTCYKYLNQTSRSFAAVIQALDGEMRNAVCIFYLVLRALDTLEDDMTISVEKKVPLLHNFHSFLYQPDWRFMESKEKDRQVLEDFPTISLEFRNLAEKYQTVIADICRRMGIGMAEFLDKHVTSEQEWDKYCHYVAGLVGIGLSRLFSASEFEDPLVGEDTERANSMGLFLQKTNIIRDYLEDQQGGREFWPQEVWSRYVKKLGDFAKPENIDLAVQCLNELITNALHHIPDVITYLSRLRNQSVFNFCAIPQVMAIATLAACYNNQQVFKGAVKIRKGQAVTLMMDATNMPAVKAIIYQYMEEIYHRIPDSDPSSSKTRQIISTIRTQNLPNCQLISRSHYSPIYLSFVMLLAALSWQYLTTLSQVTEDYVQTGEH
Experimental: The intrinsic squalene synthase inhibitory activity of representative compounds of this invention was measured by the standard in vitro protocol described below:
PREPARATION OF HUMAN HepG2 Cell ENZYME
1. SOURCE: HEPG2 CELL LINE (Liver, hepatoblastoma, Human) ATCC No. HB 8065
2. CELL GROWTH AND MAINTENANCE
Culture Medium: Minimum essential medium (MEM) with non-essential amino acids, sodium pyruvate, and 10% fetal bovine serum. The medium was changed twice weekly. […] The growth medium was prepared as listed below.
SUBCULTURE PROCEDURE: The medium was removed and washed with PBS (Phosphate-Buffered Saline 15.6 mM, pH 7.0). Fresh trypsin (0.25%)-EDTA (0.02%) with Hank's Balanced Salt solution was added and the flask was allowed to stand for a minute before the trypsin solution was removed. The flask was incubated at 37° C. until cells detached. Fresh medium was added and the cells were dispersed and dispensed into new flasks. Subcultivation ratio: 1:6. […]
HARVEST: The medium was removed and the cells were washed with PBS. […] Cells were counted (2.5×10^9 yield from 18 flasks (75 cm^2)), and resuspended in 10 mL of 50mM HEPES (N-[2-Hydroxyethyl]piperazine-N'-[2-ethane sulfonic acid]) containing 5 mM MgCl2, 2 mM MnCl2, 10 mM DTT, pH 7.5 (enzyme suspension buffer). […]

farnesyl transferase = farnesyl transferase (Homo sapiens, UniProt P49354+P49356); test: Farnesyl-transferase assay (Ras farnesylation in vitro); assay type: biochemical; settings: ras-CVLS, 3H-FPP 100 nM; 60 min, room temperature; read-out: Farnesyl transferase IC50 (inhibition of Ras farnesylation in vitro)
Experimental: FARNESYL-TRANSFERASE ASSAY
I. PREPARATION OF SOLUTIONS REQUIRED FOR THE ASSAY
203.3 g MgCl2 was dissolved in 1.0 L distilled water, and filtered through a sterile filter and stored at 4° C.
264.5 g of HEPES was added to 700 mL distilled water followed by 56 mL of 1.0M MgCl2 The pH was adjusted to 7.5 with sodium hydroxide and the volume was brought to 1000 mL. The solution was filtered through a sterile filter and stored at 4° C.
iii. 0.5M Dithiothreitol (DTT, MW=154.24)
77.12 mg of DTT was dissolved in 1.0 mL of distilled water. A few drops of 10N NaOH was added to get the DTT to go into solution. 0.5M DTT was divided into 500 μL aliquots and stored at -20° C.
iv. Preparation of Assay Buffer (Prepare fresh daily)
100 μL of 0.5M DTT was added to 900 μL of 1.1M HEPES, pH 7.5 and 55.5 mM MgCl2 to yield a 10X buffer consisting of 1.0M HEPES, pH 7.5, 50 mM MgCl2 and 50 mM DTT.
v. Preparation of ^3 H-FPP
The ^3 H-FPP (NEN #NET-1042, MW=433.3) was used directly from the bottle as provided by NEN. The stock concentration of the ^3 H-FPP was 25 μM.
vi. Preparation of the reaction mix for Totals and unknown samples (on ice)
The reaction mix was prepared as below: […]
x. The filter mats were placed in counting bags, 30 mL of LKB β-scint cocktail was added and the filter mats were counted for 120 sec in the LKB β-plate counter […]
Percent inhibition was calculated according to the following equation: [formula] […]

[2] = molecular target: T2, squalene synthase (rat liver enzyme) (Rattus norvegicus, UniProt Q02769); test: Squalene synthase assay, rat liver microsomes; assay type: biochemical; settings: 3H-farnesyl pyrophosphate, 30° C., 20 min
T2 construct: from tissue; host or cells: liver microsomes of male Charles River CD rats fed lovastatin
T2 sequence (Q02769 1-416): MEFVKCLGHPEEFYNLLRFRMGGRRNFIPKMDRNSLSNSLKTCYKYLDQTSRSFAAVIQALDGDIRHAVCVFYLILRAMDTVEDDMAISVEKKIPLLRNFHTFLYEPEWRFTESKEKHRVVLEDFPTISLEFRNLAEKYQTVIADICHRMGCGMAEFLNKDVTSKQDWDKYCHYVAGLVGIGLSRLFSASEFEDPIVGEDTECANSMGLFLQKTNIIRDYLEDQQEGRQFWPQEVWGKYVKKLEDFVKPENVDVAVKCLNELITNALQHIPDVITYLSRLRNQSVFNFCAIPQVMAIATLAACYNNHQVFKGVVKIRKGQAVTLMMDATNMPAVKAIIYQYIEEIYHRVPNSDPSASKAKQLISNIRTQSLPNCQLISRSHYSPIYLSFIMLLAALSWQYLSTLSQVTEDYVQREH
Experimental: The intrinsic squalene synthase inhibitory activity of representative compounds of this invention was measured by the standard in vitro protocol described below: […] Male, CHARLES RIVER CD rats (120 to 150 g) were fed a diet containing 0.1% lovastatin for 4 days. […] The homogenate was centrifuged twice at 20,000×g for 15 min. at 4° C., discarding the pellet each time. The supernatant was then centrifuged at 100,000×g for 1 hr at 4° C. The resulting microsomal pellet was resuspended in a volume of the above homogenizing buffer equal to one-fifth the volume of the original homogenate. […] The microsomal suspensions were stored in aliquots at -70° C. squalene synthase activity in these aliquots is stable for a least several months. Squalene Synthase Assay Reactions were performed in 1.2 mL polypropylene tube strips of 8. Buffer mixture and substrate mixture for the assay were prepared from the following solution: Buffer mixture contains 270 mM HEPES, pH 7.5, 20 mM Potassium fluoride and 5.4 mM Dithiothreitol (DTT). […] 400 μL of heptane layer was then removed into a minivial and mixed with 2.5 mL of scintillation fluid and the radioactivity was determined by liquid scintillation counting. […] Percent inhibition is calculated by the formula: [formula] IC50 values were determined by plotting the log of the concentration of the test compound versus the percentage inhibition. […]

Ras farnesylation = settings: Hancock et al., Casey et al., Schafer et al.; cited from earlier work

## CCCCCCCCCC(=O)OC1C(O)C2(CCCC(OC(C)=O)C(C)C/C=C/c3ccccc3)OC(C(=O)O)C(O)(C(=O)O)C1(C(=O)O)O2 (centres unmarked) [Zaragozic Acid D2]
[1]
  IC50: 2 nM
Farnesyl transferase
  IC50: 100 nM
[2]
  IC50: 6 nM

## CC[C@H](C)C(=O)O[C@H]1C[C@@H](C)C=C2C=C[C@H](C)[C@H](CC[C@@H]3C[C@@H](O)CC(=O)O3)[C@H]21 [lovastatin]
Ras farnesylation
  Inhibition of Ras farnesylation in vivo (in words): Inhibition of Ras farnesylation in vivo has been demonstrated

## CC[C@H](C)C(=O)O[C@H]1CCC=C2C=C[C@H](C)[C@H](CC[C@@H]3C[C@@H](O)CC(=O)O3)[C@H]21 [compactin]
Ras farnesylation
  Inhibition of Ras farnesylation in vivo (in words): Inhibition of Ras farnesylation in vivo has been demonstrated

## CCCCCCCC(=O)OC1C(O)C2(CCCC(OC(C)=O)C(C)C/C=C/c3ccccc3)OC(C(=O)O)C(O)(C(=O)O)C1(C(=O)O)O2 (centres unmarked) [Zaragozic Acid D]
[1]
  IC50: 1 nM
Farnesyl transferase
  IC50: 100 nM
[2]
  IC50: 6 nM
